Among the data in patent US20230000842A1, “METHODS OF TREATING CARTILAGE DISORDERS THROUGH INHIBITION OF CLK AND DYRK” (SAMUMED, LLC, priority 2019, published 2023) are EC50 and Emax values, retold here.

Bounds are passed on as bounds.

The subject of assay [1] is Wnt pathway activity (SW480 colon carcinoma cells stably expressing the Sp5-Luc reporter). Kind of assay: Wnt pathway activity screening assay (Sp5-Luc reporter gene assay). The note with it: Homo sapiens, SW480, Table 4; SW480 cells stably expressing Sp5-Luc reporter, 10-point dose-response from 10 μM, 36 to 48 hours.
In the next assay the target is CLK2 kinase (Homo sapiens, UniProt P49760). The experiment in a line: CLK2 kinase activity assay (Z-lyte FRET).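 Note: FRET read-out as coumarin to fluorescein emission ratio, unphosphorylated peptide as 0% and phosphorylated peptide as 100% controls, duplicate reactions, non-linear regression fit of dose-response curves.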 The assay is classed as biochemical. The note with it: Z-lyte Ser/Thr 6 peptide, 60 μM ATP, 1 h at room temperature.
The target in the next assay is CLK3 kinase (Homo sapiens, UniProt P49761). The experiment in a line: CLK3 kinase activity assay (Z-lyte FRET).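 Note: kinase activity read as coumarin/fluorescein emission ratio by FRET, unphosphorylated peptide as 0% and phosphorylated peptide as 100% control, values from non-linear regression of dose-response curves.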 Type of assay: biochemical. As to conditions: Z-lyte Ser/Thr 18 peptide, 156 μM ATP, 1 h at room temperature.
For assay [2], the system named is MMP-3 levels in supernatant of chondrocytes stimulated with IL1-β. The experiment in a line: Chondrocyte protection assay compound screening (MMP-3 LANCE Ultra). The assay is classed as cell-based, human. The note with it: Homo sapiens, Chondrocyte, IL1-β 10 ng/mL overnight, 11-point curves from 3 μM to 0.05 nM; for Emax: read-out: Maximum % Inhibition. The protocol:
Human Chondrocyte Cell Culture: Primary human chondrocytes were purchased from Lonza (Walkersville, Md.) and expanded in Chondrocyte Growth Media (CGM, Lonza). Cells between passage 2 and 5 were used for the experiments.
Chondrocytes were plated at 8,000 cells/well in 40 μL/well Chondrocyte Differentiation Medium (Lonza; 500 mL Basal Medium, 25 mL FBS, 0.5 mL GA-1000, 1 mL R3-IGF, 2.5 mL bFGF, 0.5 mL Transferrin, and 1 mL Insulin). After 2 hours of incubation at 37° C. and 5% CO2, IL1-β (Peprotech, Rocky Hill, N.J.) was added to a final concentration of 10 ng/mL. 11 wells in 1 row were left unstimulated for normalization and calculating EC50 values. Cells were incubated at 37° C. and 5% CO2 overnight. Assay plates are spun, 25 μl of supernatant media was collected using (S2 pipettor, Apricot Designs). Cells were lysed using 10 μL of (Cell Titer-Glo, Promega). Luminescent signal detected using an En Vision Multilabel reader (Perkin Elmer). MMP-3 levels were measured in supernatant. Supernatant diluted 1:7 in DMEM. MMP-3 levels in the supernatant were measured using MMP-3 LANCE Ultra detection kit (Perkin Elmer). Briefly, 5 μL of diluted supernatant was transferred to low-volume 384 well plates using (S2 pipettor, Apricot Designs). A standard curve was prepared using MMP-3 analyte (range […]). 1.7 μL of 8× mix of Eu-labelled anti-MMP-3 antibody and ULight labelled anti-MMP-3 antibody was added to the plates using Mantis Liquid handler (Formulatrix). Plates were incubated overnight at room temperature. LANCE signal was detected using an EnVision Multilabel reader (Perkin Elmer), equipped with TR-FRET using excitation wavelength of 320 nm and two emission wavelengths of 615 nm and 665 nm. Data was analyzed according to the kit protocol, using the ratio of […] and the standard curve values were used to calculate the amount of MMP3 in the […] (in pg/ml). The normalized averages (fold change over IL1-β stimulated) for each compound concentration were calculated. EC50 and maximum % inhibition values were calculated using the dose-response nonlinear regression curve-fit in Dotmatics.
A general note: In TR-FRET formats the signal depends on donor and acceptor labels being close together.

Assay [3] relates to primary human mesenchymal stem cells (hMSCs). Kind of assay: Chondrogenesis screening using primary human mesenchymal stem cells. The assay is classed as cell-based. As to conditions: Homo sapiens, Mesenchymal stem cells, hMSC chondrogenesis; maximum activity relative to TGF-β3 (10 ng/mL) positive control; read-out: Max. Activity as % TGF-β3 activity. The gist of the method:
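Derived values are EC50 for 50% chondrogenesis, maximal activity and the dose giving it. These come from nodule area in passage 3–6 primary hMSCs, expressed as fold change over the mean of 3 same-plate DMSO wells, 2–3 replicates per concentration. TGF-β3 served as positive control.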

Chain of CLK3 kinase (P49761 whole entry): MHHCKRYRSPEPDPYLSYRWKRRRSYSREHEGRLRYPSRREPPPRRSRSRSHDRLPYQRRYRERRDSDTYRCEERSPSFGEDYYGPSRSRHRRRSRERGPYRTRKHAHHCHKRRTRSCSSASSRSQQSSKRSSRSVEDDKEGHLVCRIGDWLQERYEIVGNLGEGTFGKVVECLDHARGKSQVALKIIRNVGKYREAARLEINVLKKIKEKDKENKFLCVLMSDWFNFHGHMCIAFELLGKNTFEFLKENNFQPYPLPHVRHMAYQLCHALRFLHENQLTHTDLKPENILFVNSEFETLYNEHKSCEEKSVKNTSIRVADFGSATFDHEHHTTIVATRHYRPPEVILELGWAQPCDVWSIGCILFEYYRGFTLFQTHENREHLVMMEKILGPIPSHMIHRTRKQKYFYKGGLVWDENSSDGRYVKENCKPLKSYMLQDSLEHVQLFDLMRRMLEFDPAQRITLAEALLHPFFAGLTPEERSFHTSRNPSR
Chain of CLK2 kinase (P49760 whole entry): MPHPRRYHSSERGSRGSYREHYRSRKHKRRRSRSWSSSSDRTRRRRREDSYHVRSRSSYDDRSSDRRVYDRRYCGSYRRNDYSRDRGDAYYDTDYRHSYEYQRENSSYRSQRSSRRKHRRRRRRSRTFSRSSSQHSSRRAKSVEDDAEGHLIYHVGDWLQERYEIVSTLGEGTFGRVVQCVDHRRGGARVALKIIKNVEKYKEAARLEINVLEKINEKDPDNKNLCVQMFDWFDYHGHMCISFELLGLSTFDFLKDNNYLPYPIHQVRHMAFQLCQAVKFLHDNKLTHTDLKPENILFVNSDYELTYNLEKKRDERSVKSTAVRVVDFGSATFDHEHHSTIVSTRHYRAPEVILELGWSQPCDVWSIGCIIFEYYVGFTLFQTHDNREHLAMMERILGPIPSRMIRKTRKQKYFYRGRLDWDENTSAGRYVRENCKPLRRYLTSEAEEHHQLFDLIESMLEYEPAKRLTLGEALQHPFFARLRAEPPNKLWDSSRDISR

In general, EC50 refers to the midpoint of the concentration-response curve. High values mean a need for much substance, low ones an effect from little substance. With `CN1CCN(c2cc(C(=O)Nc3cc4nc(-c5cnn(C)c5)ccc4cn3)ccn2)CC1` [compound 606], the EC50 was 102 nM in assay [1], 4 nM at CLK2 kinase, 60 nM at CLK3 kinase and not below 3000 nM in assay [2]. The Emax in assay [2] was 76.1%.

Regarding `CN(C)C1CN(c2ncc(C(=O)Nc3cc4cc(-c5cnn(C)c5)ccc4cn3)s2)C1` [compound 564], the EC50 in assay [1] was 1320 nM; at CLK2 kinase it was 2 nM; on CLK3 kinase, 37 nM; in assay [2] it was 71.4 nM. In assay [2], the Emax turned out to be 0%.

As for `O=C(Nc1ccc(C2CCC(F)(F)C2)nc1)c1n[nH]cc1C#Cc1cccnc1` (stereo not drawn) [compound 27], the EC50 was more than 10000 nM in assay [1], 32 nM on CLK2 kinase, more than 10000 nM at CLK3 kinase and not below 3000 nM in assay [2]. Further, in assay [2], the Emax was 88.5%.

In the case of `NC(=O)c1n[nH]c2ccc(-c3cncc(CN4CCCCC4)c3)cc12` [compound 74], the EC50 in assay [1] is 1960 nM; on CLK2 kinase, 12 nM; at CLK3 kinase it was 498 nM; in assay [2] it was 2.3 nM. Besides, in assay [2], the Emax came to 62.7%.

Turning to `Cc1ncc(-c2ccc3cnc(NC(=O)C4(F)CC4)cc3c2)n1C` [compound 587], the EC50 in assay [1] was found to be 2210 nM; on CLK2 kinase, 8 nM; on CLK3 kinase, 678 nM; in assay [2] it was 18.7 nM.

Regarding `CN1CCC(n2cc(C(=O)Nc3cc4cc(-c5cncc6[nH]ccc56)ccc4cn3)cn2)CC1` [compound 604], the EC50 in assay [1] was found to be 13.3 nM; at CLK2 kinase, 2 nM; at CLK3 kinase it was 7 nM; in assay [2], 40.1 nM. In addition, the Emax in assay [2] was 57.4%.

For the molecule `O=C(Nc1cccnc1)c1n[nH]c2ccc(-c3cncc(CN4CC(CO)(CO)C4)c3)cc12` [compound 69], the EC50 in assay [1] is more than 10000 nM; on CLK2 kinase, 2 nM; on CLK3 kinase it was 62 nM; in assay [2], 69.7 nM. Further, the Emax in assay [2] was found to be 12.3%.

For `CN1CCN(c2cc(C(=O)Nc3ncc4ccc(-c5cnn(C)c5)cc4n3)ccn2)CC1` [compound 607], the concentration giving a half-maximal response (EC50) in assay [1] is 468 nM; at CLK2 kinase it was 6 nM; at CLK3 kinase it was 135 nM; in assay [2] it was 417 nM. The Emax in assay [2] was found to be 79.7%.

With `O=C(Nc1ccc(C(=O)N2CCCC2)nc1)c1n[nH]c2ccc(-c3cncc(CN4CCCCC4)c3)cc12` [compound 88], the EC50 was 30 nM in assay [1], 1 nM at CLK2 kinase, 12 nM at CLK3 kinase and not below 3000 nM in assay [2]. In addition, the Emax in assay [2] worked out at 100%.

For `CN1CCN(c2cc(C(=O)Nc3cc4cc(-c5ccc(N)nc5)ccc4cn3)ccn2)CC1` [compound 596], the EC50 in assay [1] is 710 nM; on CLK2 kinase, 1 nM; on CLK3 kinase, 42 nM; in assay [2], 798 nM. Further, in assay [2], the Emax was determined as 39.9%.

As for `CN1CCC(n2cc(C(=O)Nc3cc4cc(-c5cnc6cc[nH]c6c5)ccc4cn3)cn2)CC1` [compound 605], the EC50 in assay [1] is 26.8 nM; on CLK2 kinase, 2 nM; on CLK3 kinase it was 9 nM; in assay [2], not below 3000 nM. Also, the Emax in assay [2] is 59.9%.

For the molecule `O=C(Nc1cc2cc(-c3cncc(NC4CCNCC4)n3)ncc2cn1)C1CCOCC1` [compound 613], the EC50 in assay [1] came to 3640 nM; at CLK2 kinase, 7 nM; on CLK3 kinase, 133 nM; in assay [2], 46.6 nM. Also, the Emax in assay [2] is 51.4%.

For the molecule `Cn1ncc(-c2ccc3cnc(NC(=O)c4cccc(CN5CCCC5)c4)cc3c2)c1CN1CCCCC1` [compound 572], the results for the Emax in assay [3] and in assay [2] were 27.6% and 96.5%, respectively. Also, the EC50 at CLK2 kinase is 2 nM; on CLK3 kinase it was 15 nM; in assay [2], 1190 nM.

Turning to `CN1CCC(Oc2ccc(C(=O)Nc3cc4cc(-c5cnn(C)c5)ccc4cn3)cc2)CC1` [compound 541], the Emax was 25.4% in assay [3] and 95.6% in assay [2]. Also, the EC50 is 1 nM at CLK2 kinase, 14 nM on CLK3 kinase and not below 3000 nM in assay [2].

Consider `Cc1n[nH]c2ccc(-c3cncc(OCCN)c3)cc12` [compound 34], for which the EC50 is 1640 nM in assay [1], 5250 nM on CLK3 kinase and not below 3000 nM in assay [2]. Also, the Emax in assay [2] turned out to be 12.9%.

As for `CN1CCN(c2ccc(C(=O)N3CCN(c4cc(C(=O)Nc5cc6cc(-c7cnn(C)c7)ccc6cn5)ccn4)CC3)cn2)CC1` [compound 553], the EC50 at CLK2 kinase was found to be 2 nM; on CLK3 kinase, 280 nM; in assay [2], 304 nM. In assay [2], the Emax was 52.3%.

Take `Cc1cc(C(=O)Nc2cc3cc(-c4cnn(C)c4)ccc3cn2)cc(N2CCN(C)CC2)n1` [compound 548]: the values for the EC50 (at CLK2 kinase; on CLK3 kinase; in assay [2]) were 2 nM, 26 nM and not below 3000 nM, respectively. Besides, in assay [2], the Emax turned out to be 62.4%.

As for `Cn1cc(-c2ccc3cnc(NC(=O)c4ccc5c(c4)ncn5C)cc3c2)cn1` [compound 558], the EC50 at CLK2 kinase was 3 nM; on CLK3 kinase, 49 nM; in assay [2] it was not below 3000 nM. For the same molecule, in assay [2], the Emax was determined as 46.9%.

With `CN(C)Cc1ccc(C(=O)Nc2cc3cc(-c4cnn(C)c4)ccc3cn2)cc1` [compound 540], the figures for the EC50 (at CLK2 kinase; on CLK3 kinase; in assay [2]) were 3 nM, 41 nM and 47.4 nM, respectively. Further, in assay [2], the Emax was 80.7%.

On to `Cc1ncc(-c2ccc3cnc(NC(=O)c4ccc(OC(C)C)cc4)cc3c2)n1C` [compound 588], for which the EC50 on CLK2 kinase worked out at 2 nM; on CLK3 kinase, 70 nM; in assay [2], 10.5 nM. The Emax in assay [2] was determined as 74.7%.

In the case of `Cn1cncc1-c1ccc2cnc(NC(=O)c3ccc(F)cc3)cc2c1` [compound 580], the results for the Emax in assay [3] and in assay [2] were 24.9% and 59.4%, respectively. For the same molecule, the results for the EC50 (on CLK2 kinase; on CLK3 kinase; in assay [2]) were 1 nM, 33 nM and not below 3000 nM, respectively.

Turning to `CC(C)N1CCC(Oc2cc(C(=O)Nc3cc4cc(-c5cnn6c5CCNC6)ccc4cn3)ccn2)CC1` [compound 575], the Emax in assay [3] was 18.6%; in assay [2] it was 41.5%. Moreover, the figures for the EC50 (at CLK2 kinase; at CLK3 kinase; in assay [2]) were 2 nM, 26 nM and 75.8 nM, respectively.

With `CN1CCN(c2cc(C(=O)Nc3cc4cc(-c5cnc(N)s5)ccc4cn3)ccn2)CC1` [compound 593], the concentration for a half-maximal effect (EC50) was determined as 3 nM at CLK2 kinase, 22 nM on CLK3 kinase and 0.4 nM in assay [2]. Moreover, in assay [2], the Emax amounted to 62.9%.

`c1cncc(-c2ccc3[nH]nc(-c4cc5c(-c6cccnc6)cncc5[nH]4)c3c2)c1` [compound 341]: the Emax in assay [3] and in assay [2] was 58.2% throughout. Further, the EC50 in assay [1] was 310 nM; on CLK3 kinase, 3 nM; in assay [2], 1.1 nM.

Take `Cn1cncc1-c1ccc2cnc(NC(=O)c3ccnc(N4CCN(C5CC5)CC4)c3)cc2c1` [compound 582]: the EC50 at CLK2 kinase is 2 nM; on CLK3 kinase it was 18 nM; in assay [2], not below 3000 nM. For the same molecule, the Emax in assay [2] is 52.2%.

Take `CN1CCN(c2ccc(C(=O)Nc3cc4cc(-c5cnn6c5CN(CCF)CC6)ccc4cn3)cn2)CC1` [compound 576]: the EC50 was 2 nM at CLK2 kinase, 81 nM on CLK3 kinase and not below 3000 nM in assay [2]. Also, the Emax in assay [2] stood at 62.6%.
